Source: US12357680B2, “Inhibition of histone methyl transferases to treat cancer” (Albert-Ludwigs-Universitat Freiburg, priority 2018, dated 2025)
pIC50, pKd: −log10 of the molar value.

Tests used:
KMT9 [1] = target: T1, KMT9 (Homo sapiens (Human), UniProt Q9Y5N5); assay: Thermal shift assay of KMT9 upon inhibitor binding; conditions: thermal shift at 500 μM
Method: For inhibitor testing, 1 μL of the compound, dissolved in DMSO at different concentrations, were added to a 96 well hard-shell PCR plate (Bio-Rad). Afterwards 4 μL of assay buffer (50 mM BTP, 1 mM MgCl2, 1 mM DTT, pH 8.5) were added, followed by 10 μL of 2×KMT9 (final concentration 2 μM) in assay buffer. After addition of 5 μL 4×SYPRO-Orange (Sigma) (final concentration 5×), the plate was spun for 1 min at 700 rpm, then shaken at 600 rpm for 15 minutes. After another […] spinning at 700 rpm for 1 min, measurement was performed using a CFX96 Touch Real-Time PCR Detection System (Bio-Rad). The plate was equilibrated at 20° C. for 4 minutes before heating gradually by 1° C. every 15 seconds until 95° C. After every step, the fluorescence was measured in FRET mode. The thermal shift at 500 μM is detected in K (Kelvin). For Example 9o, the thermal shift at 250 μM is detected in K (Kelvin). The obtained thermal shift obtained by adding the tested compound is shown in the table below as follows: shift ≤5 K is denoted with a “+”, shift >5 and ≤15 K is denoted with “++”, and shift >15 K is denoted with “+++”.

[2] = test system: plurality of methyltransferases including DOT1L; assay: Specificity across a plurality of methyltransferases; format: biochemical; conditions: 10-dose IC50 mode starting at 10 μM, 1 μM SAM
Method: (§1) Compound 72b was further tested against a plurality of methyltransferases as described in the following. […] Reactions were carried out at 1 μM SAM. Curve fits were performed where the enzyme activities at the highest concentration of compounds were less than 65%. […] Compound 72b is referred to as KMI9542321 in the table below.

KMT9 [3] = target: T1, KMT9; assay: Microscale thermophoresis (MST) KMT9-binding; conditions: His-tag labelled KMT9 20 nM; read-out: Binding affinity in MST
Method: To determine the binding affinity of the compound to KMT9, microscale thermophoresis (MST) analysis was performed with a NanoTemper Monolith NT.115 instrument (NanoTemper Technologies GmbH). KMT9 was labelled with a RED-Tris-NTA labelling kit (NanoTemper Technologies GmbH) based on the manufacturer's instructions. Buffer including 25 mM HEPES (pH 7.5), 100 mM NaCl, 1 mM DTT and 0.05% Tween was used for the reaction buffer. Varying concentrations of the compound were titrated against His-tag labelled KMT9 proteins (20 nM). Samples were loaded into standard Capillaries (NanoTemper Technologies GmbH) and MST measurements were performed using 40% MST power and 100% LED power. For each set of binding experiments, MST measurement was carried out with Binding Affinity module in MO. Control program under Nano-RED Excitation. Datasets were processed with the MO. Affinity Analysis software (NanoTemper Technologies GmbH).

KMT9 [4] = target: T1, KMT9; assay: Methyltransferase panel, 10-dose IC50 mode; format: biochemical; conditions: Substrate: Histone H4; 1 μM SAM; read-out: Compound IC50* (M) KMI9542321
Method: as §1

KMT9 [5] = target: T1, KMT9; assay: Methylation assay to test KMT9-inhibition ([3H]SAM, filter binding, scintillation); format: biochemical; conditions: ETF1 or histone H4 substrate
Method: Methylation assays were performed to test inhibition of the KMT9 methyltransferase activity by compound 72b. To test the compound, 1 μL of the compound, dissolved in DMSO at different concentrations, was added to a 0.5 ml tube (Brand Gmbh&Co KG). Afterwards, 4 μL of assay buffer (50 mM BTP, 1 mM MgCl2, 1 mM DTT, 0.01% TX-100, pH 8.5) were added together with 10 μL of 2× solution of KMT9 diluted in assay buffer (final concentration 0.025-0.6 μM). The solutions were mixed and incubated for 20 min at room temperature, shaking at 300 rpm. Afterwards, 5 μL of 4× Protein-SAM mix was added (final concentrations: 5 μM ETF1 or histone H4, SAM: 1-2.5 μM (including 30% of radioactively labelled [3H]SAM)) to a final assay volume of 20 μL. The reaction mixtures were mixed and incubated in an Eppendorf thermomixer comfort for 2 h at 30° C., shaking at 300 rpm. The reaction was quenched using 5 μL of 50% trichloroacetic acid (TCA) in water, mixed and incubated for 5 min at room temperature without shaking. […] The scintillation signal was measured for 3×1 min using Tri-Carb 2910 TR (PerkinElmer) scintillation counter in [^3H] […]

NSD1 = NSD1 (Homo sapiens (Human), UniProt Q96L73); assay: Methyltransferase panel, 10-dose IC50 mode; format: biochemical; conditions: Substrate: Nucleosomes; 1 μM SAM; read-out: Control IC50*
Method: as §1

PRMT6 = PRMT6 (Homo sapiens (Human), UniProt Q96LA8); assay: Methyltransferase panel, 10-dose IC50 mode; format: biochemical
Method: as §1

MLL3 Complex = MLL3 Complex (Homo sapiens (Human), UniProt Q8NEZ4); assay: Methyltransferase panel, 10-dose IC50 mode; format: biochemical; conditions: Substrate: Core Histone; 1 μM SAM; read-out: Control IC50*
Method: as §1

SETD2 = SETD2 (Homo sapiens (Human), UniProt Q9BYW2); assay: Methyltransferase panel, 10-dose IC50 mode; format: biochemical; conditions: Substrate: Nucleosomes; 1 μM SAM; read-out: Control IC50*
Method: as §1

NRMT1 = NRMT1 (Homo sapiens (Human), UniProt Q9BV86); assay: Methyltransferase panel, 10-dose IC50 mode; format: biochemical; conditions: Substrate: RCC1; 1 μM SAM; read-out: Control IC50*
Method: as §1

GLP = GLP (Homo sapiens (Human), UniProt Q9H9B1); assay: Methyltransferase panel, 10-dose IC50 mode; format: biochemical; conditions: Substrate: Histone H3 (1-21); 1 μM SAM; read-out: Control IC50*
Method: as §1

DNMT3b/3L = DNMT3b/3L (Homo sapiens (Human), UniProt Q9UBC3); assay: Methyltransferase panel, 10-dose IC50 mode; format: biochemical; conditions: Substrate: Lambda DNA; 1 μM SAM; read-out: Control IC50*
Method: as §1

DNMT3a = DNMT3a (Homo sapiens (Human), UniProt Q9Y6K1); assay: Methyltransferase panel, 10-dose IC50 mode; format: biochemical; conditions: Substrate: Lambda DNA; 1 μM SAM; read-out: Control IC50*
Method: as §1

SET7/9 = SET7/9 (Homo sapiens (Human), UniProt Q8WTS6); assay: Methyltransferase panel, 10-dose IC50 mode; format: biochemical; conditions: Substrate: Core Histone; 1 μM SAM; read-out: Control IC50*
Method: as §1

PRMT3 = PRMT3 (Homo sapiens (Human), UniProt O60678); assay: Methyltransferase panel, 10-dose IC50 mode; format: biochemical; conditions: Substrate: Histone H4; 1 μM SAM; read-out: Control IC50*
Method: as §1

DNMT3b = DNMT3b (Homo sapiens (Human), UniProt Q9UBC3); assay: Methyltransferase panel, 10-dose IC50 mode; format: biochemical; conditions: Substrate: Lambda DNA; 1 μM SAM; read-out: Control IC50*
Method: as §1

[6] = Methyltransferase panel, 10-dose IC50 mode; format: biochemical; conditions: Substrate: Core Histone; 1 μM SAM; read-out: Control IC50*
Method: as §1

MLL1 Complex = MLL1 Complex (Homo sapiens (Human), UniProt Q03164); assay: Methyltransferase panel, 10-dose IC50 mode; format: biochemical; conditions: Substrate: Nucleosomes; 1 μM SAM; read-out: Control IC50*
Method: as §1

NRMT2 = NRMT2 (Homo sapiens (Human), UniProt Q5VVY1); assay: Methyltransferase panel, 10-dose IC50 mode; format: biochemical; conditions: Substrate: RCC1; 1 μM SAM; read-out: Control IC50*
Method: as §1

SUV420H1TV2 = SUV420H1TV2 (Homo sapiens (Human), UniProt Q4FZB7); assay: Methyltransferase panel, 10-dose IC50 mode; format: biochemical; conditions: Substrate: Nucleosomes; 1 μM SAM; read-out: Control IC50*
Method: as §1

SET1b Complex = SET1b Complex (Homo sapiens (Human), UniProt Q9UPS6); assay: Methyltransferase panel, 10-dose IC50 mode; format: biochemical; conditions: Substrate: Core Histone; 1 μM SAM; read-out: Control IC50*
Method: as §1

SUV39H2 = SUV39H2 (Homo sapiens (Human), UniProt Q9H5I1); assay: Methyltransferase panel, 10-dose IC50 mode; format: biochemical; conditions: Substrate: Histone H3; 1 μM SAM; read-out: Control IC50*
Method: as §1

SMYD3 = SMYD3 (Homo sapiens (Human), UniProt Q9H7B4); assay: Methyltransferase panel, 10-dose IC50 mode; format: biochemical; conditions: Substrate: MEKK2; 1 μM SAM; read-out: Control IC50*
Method: as §1

T1 sequence (Q9Y5N5 whole entry): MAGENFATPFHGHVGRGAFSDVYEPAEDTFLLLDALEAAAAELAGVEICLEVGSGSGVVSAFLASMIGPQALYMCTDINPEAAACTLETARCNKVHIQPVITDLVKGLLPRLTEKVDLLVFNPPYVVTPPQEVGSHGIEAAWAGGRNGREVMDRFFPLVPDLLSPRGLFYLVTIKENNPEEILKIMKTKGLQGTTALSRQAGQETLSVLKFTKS
T1 sequence (Q9UI30 whole entry partner): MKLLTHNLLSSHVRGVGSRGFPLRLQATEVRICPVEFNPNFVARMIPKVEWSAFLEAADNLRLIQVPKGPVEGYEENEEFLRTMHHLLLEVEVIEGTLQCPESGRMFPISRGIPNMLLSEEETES
Sequence of GLP (Q9H9B1 whole entry): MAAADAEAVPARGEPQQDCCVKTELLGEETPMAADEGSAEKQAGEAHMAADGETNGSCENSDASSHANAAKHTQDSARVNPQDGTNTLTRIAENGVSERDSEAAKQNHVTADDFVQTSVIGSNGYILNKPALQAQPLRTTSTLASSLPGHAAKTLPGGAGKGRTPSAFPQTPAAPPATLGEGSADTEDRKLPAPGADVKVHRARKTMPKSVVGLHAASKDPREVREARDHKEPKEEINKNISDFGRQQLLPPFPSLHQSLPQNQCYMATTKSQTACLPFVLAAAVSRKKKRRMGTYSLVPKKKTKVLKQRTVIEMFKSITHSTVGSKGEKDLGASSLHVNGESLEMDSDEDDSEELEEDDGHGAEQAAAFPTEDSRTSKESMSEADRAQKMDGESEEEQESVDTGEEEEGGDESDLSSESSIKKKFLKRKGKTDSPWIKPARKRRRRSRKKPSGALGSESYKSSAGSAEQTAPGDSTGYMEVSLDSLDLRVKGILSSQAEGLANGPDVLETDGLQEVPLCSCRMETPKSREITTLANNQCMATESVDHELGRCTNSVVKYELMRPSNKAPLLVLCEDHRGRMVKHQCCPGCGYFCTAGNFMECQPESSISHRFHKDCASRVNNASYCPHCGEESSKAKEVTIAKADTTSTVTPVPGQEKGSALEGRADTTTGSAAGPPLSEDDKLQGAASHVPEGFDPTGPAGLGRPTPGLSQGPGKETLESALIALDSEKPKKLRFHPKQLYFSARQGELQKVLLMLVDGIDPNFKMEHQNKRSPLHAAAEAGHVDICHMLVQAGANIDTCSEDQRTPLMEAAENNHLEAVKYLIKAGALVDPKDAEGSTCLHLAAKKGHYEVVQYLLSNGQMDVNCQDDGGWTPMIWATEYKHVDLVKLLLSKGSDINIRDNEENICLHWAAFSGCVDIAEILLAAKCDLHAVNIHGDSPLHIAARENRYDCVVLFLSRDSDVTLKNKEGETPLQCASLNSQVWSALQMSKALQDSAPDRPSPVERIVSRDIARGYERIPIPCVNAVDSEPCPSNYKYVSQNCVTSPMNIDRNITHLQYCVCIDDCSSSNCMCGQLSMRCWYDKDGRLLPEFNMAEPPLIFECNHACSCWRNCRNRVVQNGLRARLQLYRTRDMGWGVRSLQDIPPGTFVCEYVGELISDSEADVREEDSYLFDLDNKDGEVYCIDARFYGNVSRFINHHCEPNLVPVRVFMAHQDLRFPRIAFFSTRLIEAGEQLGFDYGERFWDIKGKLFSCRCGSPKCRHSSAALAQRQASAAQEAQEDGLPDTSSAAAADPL
Sequence of PRMT6 (Q96LA8 whole entry, species assumed): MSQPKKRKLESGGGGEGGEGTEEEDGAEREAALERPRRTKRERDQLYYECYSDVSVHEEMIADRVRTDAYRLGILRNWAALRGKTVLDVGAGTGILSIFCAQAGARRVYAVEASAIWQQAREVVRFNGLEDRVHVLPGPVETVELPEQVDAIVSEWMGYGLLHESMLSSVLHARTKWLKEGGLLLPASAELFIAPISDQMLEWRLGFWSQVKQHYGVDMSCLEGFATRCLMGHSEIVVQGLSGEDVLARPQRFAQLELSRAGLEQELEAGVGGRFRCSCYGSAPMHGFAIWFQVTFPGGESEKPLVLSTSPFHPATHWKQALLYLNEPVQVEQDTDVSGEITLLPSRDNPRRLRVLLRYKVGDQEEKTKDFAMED
Sequence of SETD2 (Q9BYW2 whole entry): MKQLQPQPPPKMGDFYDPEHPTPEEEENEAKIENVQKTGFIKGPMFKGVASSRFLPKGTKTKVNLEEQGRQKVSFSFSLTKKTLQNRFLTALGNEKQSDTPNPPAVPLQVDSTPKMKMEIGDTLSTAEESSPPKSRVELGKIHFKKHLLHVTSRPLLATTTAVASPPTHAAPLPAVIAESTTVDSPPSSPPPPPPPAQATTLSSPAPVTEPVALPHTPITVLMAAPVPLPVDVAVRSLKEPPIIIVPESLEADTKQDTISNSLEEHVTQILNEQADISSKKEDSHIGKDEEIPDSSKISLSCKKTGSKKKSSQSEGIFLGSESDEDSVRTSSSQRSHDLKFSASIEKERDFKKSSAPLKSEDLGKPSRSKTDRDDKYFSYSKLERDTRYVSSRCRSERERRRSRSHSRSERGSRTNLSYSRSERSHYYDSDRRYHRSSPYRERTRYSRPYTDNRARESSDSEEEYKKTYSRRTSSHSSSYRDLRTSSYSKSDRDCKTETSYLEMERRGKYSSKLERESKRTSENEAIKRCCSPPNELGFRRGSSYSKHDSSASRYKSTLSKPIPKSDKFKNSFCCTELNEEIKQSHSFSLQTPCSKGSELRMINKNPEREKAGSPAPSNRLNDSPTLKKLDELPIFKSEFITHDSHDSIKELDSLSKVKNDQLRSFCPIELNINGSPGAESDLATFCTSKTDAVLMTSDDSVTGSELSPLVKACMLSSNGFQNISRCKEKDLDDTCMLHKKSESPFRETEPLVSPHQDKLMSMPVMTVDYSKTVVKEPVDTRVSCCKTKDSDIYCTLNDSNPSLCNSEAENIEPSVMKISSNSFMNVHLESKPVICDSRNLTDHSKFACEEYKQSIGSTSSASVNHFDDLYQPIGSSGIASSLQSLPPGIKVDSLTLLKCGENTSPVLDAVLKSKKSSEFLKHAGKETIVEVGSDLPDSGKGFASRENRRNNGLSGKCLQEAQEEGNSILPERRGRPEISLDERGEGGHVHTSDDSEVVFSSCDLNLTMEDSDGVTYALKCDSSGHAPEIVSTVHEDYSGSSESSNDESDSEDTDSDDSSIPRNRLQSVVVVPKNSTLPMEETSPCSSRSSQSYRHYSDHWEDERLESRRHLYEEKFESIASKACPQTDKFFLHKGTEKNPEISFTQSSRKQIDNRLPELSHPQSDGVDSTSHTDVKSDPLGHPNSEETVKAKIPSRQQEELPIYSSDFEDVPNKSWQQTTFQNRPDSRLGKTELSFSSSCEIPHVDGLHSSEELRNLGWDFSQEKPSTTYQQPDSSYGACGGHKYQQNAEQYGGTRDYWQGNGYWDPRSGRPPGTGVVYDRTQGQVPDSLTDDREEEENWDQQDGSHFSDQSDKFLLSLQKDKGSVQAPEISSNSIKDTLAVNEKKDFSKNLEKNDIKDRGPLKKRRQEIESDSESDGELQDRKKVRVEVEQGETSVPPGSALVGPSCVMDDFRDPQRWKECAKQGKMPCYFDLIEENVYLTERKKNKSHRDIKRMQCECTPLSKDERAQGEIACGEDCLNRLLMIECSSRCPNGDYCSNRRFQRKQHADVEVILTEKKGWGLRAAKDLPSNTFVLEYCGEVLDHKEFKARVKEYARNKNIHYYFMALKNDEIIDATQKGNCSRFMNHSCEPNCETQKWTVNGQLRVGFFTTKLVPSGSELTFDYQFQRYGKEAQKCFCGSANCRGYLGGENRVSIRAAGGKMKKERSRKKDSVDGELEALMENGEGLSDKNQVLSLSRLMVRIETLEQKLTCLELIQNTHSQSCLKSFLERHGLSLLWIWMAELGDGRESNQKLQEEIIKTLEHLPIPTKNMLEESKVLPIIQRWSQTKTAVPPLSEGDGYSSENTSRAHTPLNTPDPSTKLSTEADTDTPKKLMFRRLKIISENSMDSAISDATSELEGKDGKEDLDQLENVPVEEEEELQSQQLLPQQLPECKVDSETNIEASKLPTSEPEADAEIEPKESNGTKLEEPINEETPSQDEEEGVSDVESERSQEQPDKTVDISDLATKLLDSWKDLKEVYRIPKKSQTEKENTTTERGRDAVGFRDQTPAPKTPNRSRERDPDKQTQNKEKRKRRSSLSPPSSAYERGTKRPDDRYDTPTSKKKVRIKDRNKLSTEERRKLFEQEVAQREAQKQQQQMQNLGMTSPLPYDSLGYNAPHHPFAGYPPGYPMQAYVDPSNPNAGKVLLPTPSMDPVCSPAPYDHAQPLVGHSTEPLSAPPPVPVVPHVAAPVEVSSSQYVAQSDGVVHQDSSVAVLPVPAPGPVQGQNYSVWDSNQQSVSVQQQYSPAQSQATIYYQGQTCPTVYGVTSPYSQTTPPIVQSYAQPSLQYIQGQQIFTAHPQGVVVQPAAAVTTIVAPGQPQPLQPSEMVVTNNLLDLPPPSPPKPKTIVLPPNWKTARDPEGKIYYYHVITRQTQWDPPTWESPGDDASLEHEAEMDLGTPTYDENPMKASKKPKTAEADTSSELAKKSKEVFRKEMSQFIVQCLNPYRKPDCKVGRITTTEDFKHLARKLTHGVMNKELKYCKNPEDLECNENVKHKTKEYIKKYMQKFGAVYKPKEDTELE
Sequence of NRMT2 (Q5VVY1 whole entry): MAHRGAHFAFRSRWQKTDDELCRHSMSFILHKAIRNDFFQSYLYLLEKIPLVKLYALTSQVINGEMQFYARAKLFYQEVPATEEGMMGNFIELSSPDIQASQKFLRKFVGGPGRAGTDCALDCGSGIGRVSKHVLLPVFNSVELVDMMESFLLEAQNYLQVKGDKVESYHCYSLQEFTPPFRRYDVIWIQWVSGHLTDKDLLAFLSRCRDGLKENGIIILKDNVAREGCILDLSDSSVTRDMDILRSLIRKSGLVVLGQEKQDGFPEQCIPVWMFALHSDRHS

With `CNc1ncnc2c1ccn2[C@@H]1C[C@H](CN(CCCNCCc2ccccc2)CC[C@H](N)C(=O)O)[C@@H](O)[C@H]1O` [Compound 72b, (S)-2-amino-4-((((1R,2R,3S,4R)-2,3-dihydroxy-4-(4-(methylamino)-7H-pyrrolo[2,3-d]pyrimidin-7-yl)cyclopentyl)methyl)(3-(phenethylamino)propyl)amino)butanoic acid] the ΔTm at 500 µM (KMT9 [1]) was 5 to 15 °C, the “specificity for KMT9-inhibition versus other methyltransferases” value [2] was “specific for KMT9-inhibition” and the pKd (KMT9 [3]) was greater than 7.00. The IC50 (KMT9 [4]) was 2e-07 M and the pIC50 (KMT9 [5]) was greater than 7.00.

Work on `Nc1ncnc2c1ncn2[C@@H]1O[C@H](CSCC[C@H](N)C(=O)O)[C@@H](O)[C@H]1O` [SAH, S-(5′-Adenosyl)-L-homocysteine] yielded a pIC50 (NSD1) of 5.36, a pIC50 (PRMT6) of 6.70 and a pIC50 (MLL3 Complex) of 4.60. It also gave a pIC50 (SETD2) of 5.39, a pIC50 (NRMT1) of 5.97 and a pIC50 (GLP) of 5.92. For the same compound, the pIC50 (DNMT3b/3L) was 7.49, the pIC50 (DNMT3a) was 6.48 and the pIC50 (SET7/9) was 3.55. For the same compound, the pIC50 (PRMT3) was 5.73, the pIC50 (DNMT3b) was 7.45 and the pIC50 [6] was 4.58. For the same compound, the pIC50 (MLL1 Complex) was 5.93, the pIC50 (NRMT2) was 6.19 and the pIC50 (SUV420H1TV2) was 3.86. The pIC50 (SET1b Complex) was 5.28, the pIC50 (SUV39H2) was 3.99 and the pIC50 (SMYD3) was 4.89.
